How the values were obtained:
BTK = target: T1, BTK (Homo sapiens, UniProt Q06187); test: Western blot degradation of BTK; format: cell-based; conditions: Table IIA4, BTK inhibitor-based
T1 construct: expression of target proteins in cells; endogenous in cells
Protocol: (§1) Conventional Western blot assay was performed to evaluate the effects of the compounds of the present disclosure on the expression of target proteins in cells.
(§2) (1) Cell Seeding and Protein Harvesting: The selected cells were processed according to the cell seeding procedure and protein harvesting procedure in Table II-2.
(§3) (2) To the collected supernatant, 5×SDS sample loading buffer was added, followed by denaturation at 95 °C for 5 minutes. The denatured samples were then separated by SDS-PAGE electrophoresis on a polyacrylamide gel. Proteins were transferred to a nitrocellulose membrane (0.45 μm NC membrane), blocked with blocking buffer at room temperature for 1 hour, and subjected to antibody incubation and development procedures according to the antibody manufacturer's instructions (Cell Signaling Technology).
(§4) Half-Maximal Degradation Concentration value (the drug concentration required for degrading proteins by 50%, abbreviated as DC50) reads method: comparing the grayscale values of Western blot bands from drug-treated samples with those from blank DMSO-treated controls, and identifying the drug concentration range at which the grayscale value is half that of the DMSO-treated control bands.
(§5) DC50 values can be calculated using ImageJ software to measure grayscale values of Western blot bands from drug-treated samples. The concentration-response curve is fitted to estimate the drug concentration corresponding to half the grayscale value.
(§6) Target protein remaining (%) refers to the percentage of target protein remaining in cells after treatment with protein degrader compounds.
(§7) Calculation method for target protein remaining (%): Use ImageJ software to measure grayscale values of Western blot bands from drug (protein degrader)-treated samples. The grayscale value of drug-treated bands is divided by that of internal control protein bands, and the resulting quotient is normalized to obtain the relative percentage of remaining target protein after protein degrader treatment.
(§8) Target protein degradation rate (%)=1−target protein remaining (%).

[1] = target: T2, human Cereblon WT GST-tagged protein (CRBN) (Homo sapiens, UniProt Q96SW2); test: CRBN binding by HTRF (Cereblon binding kit)
T2 construct: purchased CISBIO 64BDCRBNPEH
T2 sequence (Q96SW2 whole entry): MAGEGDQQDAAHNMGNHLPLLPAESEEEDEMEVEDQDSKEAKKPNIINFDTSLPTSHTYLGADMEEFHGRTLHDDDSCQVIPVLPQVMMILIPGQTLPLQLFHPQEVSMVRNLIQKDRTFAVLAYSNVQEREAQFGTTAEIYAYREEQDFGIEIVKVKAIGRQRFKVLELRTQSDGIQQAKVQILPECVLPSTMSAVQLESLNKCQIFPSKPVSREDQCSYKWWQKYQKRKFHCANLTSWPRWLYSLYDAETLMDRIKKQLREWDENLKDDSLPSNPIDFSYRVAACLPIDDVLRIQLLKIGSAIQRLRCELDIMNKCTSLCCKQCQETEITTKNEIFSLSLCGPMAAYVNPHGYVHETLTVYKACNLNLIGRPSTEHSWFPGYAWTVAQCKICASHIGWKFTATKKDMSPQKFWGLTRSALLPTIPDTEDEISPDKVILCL
In short: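 GST-tagged human Cereblon WT was incubated 3 h at room temperature with compound, thalidomide-Re tracer and Eu anti-GST antibody. Final compound concentrations were 10 to 0.00064 µM (7 points) or 2 and 0.5 µM. Inhibition rate was calculated from HTRF 665/620 nm ratios versus solvent and blank controls.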

Tau = target: T3, Tau (Homo sapiens, UniProt P10636); test: Western blot degradation of Tau; format: cell-based; conditions: H4 Cell; 24 hours
T3 construct: endogenous in cells
T3 sequence (P10636 whole entry): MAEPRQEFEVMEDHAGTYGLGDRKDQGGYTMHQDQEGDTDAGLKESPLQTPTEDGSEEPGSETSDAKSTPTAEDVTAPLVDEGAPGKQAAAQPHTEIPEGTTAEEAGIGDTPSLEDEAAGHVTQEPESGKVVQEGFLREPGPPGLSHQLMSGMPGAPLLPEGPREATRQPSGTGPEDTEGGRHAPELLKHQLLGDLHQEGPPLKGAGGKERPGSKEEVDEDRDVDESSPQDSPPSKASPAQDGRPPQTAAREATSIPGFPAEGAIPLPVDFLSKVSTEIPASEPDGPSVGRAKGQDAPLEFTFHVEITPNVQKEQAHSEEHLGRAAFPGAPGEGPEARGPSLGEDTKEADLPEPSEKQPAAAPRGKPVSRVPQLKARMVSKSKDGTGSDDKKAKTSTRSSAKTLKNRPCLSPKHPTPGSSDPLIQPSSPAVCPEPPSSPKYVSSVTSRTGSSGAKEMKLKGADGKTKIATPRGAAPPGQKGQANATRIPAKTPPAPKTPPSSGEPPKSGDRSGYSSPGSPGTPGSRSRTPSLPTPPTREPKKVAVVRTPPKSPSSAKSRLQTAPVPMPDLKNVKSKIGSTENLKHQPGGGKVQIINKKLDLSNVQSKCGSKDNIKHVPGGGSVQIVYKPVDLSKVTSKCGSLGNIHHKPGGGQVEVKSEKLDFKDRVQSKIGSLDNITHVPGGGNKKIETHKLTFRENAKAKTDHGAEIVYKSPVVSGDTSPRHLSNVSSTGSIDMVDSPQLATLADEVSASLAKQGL
Protocol: as §1, §2, §3, §4, §5, §6, §7, §8

T1 sequence (Q06187 whole entry): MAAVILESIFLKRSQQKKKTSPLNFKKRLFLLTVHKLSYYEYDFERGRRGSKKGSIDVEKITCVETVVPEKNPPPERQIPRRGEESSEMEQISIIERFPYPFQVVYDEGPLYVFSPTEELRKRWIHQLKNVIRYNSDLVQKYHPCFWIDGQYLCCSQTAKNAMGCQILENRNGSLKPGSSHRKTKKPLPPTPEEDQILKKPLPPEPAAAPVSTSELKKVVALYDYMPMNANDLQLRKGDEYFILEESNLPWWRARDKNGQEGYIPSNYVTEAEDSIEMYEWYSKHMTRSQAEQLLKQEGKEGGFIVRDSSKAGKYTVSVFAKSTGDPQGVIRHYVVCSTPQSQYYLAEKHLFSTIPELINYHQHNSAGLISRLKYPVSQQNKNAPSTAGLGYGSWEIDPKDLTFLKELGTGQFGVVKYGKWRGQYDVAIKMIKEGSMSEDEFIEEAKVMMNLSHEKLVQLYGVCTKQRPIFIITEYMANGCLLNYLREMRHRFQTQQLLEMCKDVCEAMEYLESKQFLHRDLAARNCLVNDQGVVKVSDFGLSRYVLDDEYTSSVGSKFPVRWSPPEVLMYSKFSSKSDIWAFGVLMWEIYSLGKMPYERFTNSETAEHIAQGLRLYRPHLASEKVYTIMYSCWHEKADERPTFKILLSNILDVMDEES

Compound	Degradation of substrate protein BTK (substrate protein remaining %) (BTK)	inhibition at 0.5 µM ([1]; 0.5 μM, read-out: Inhibition Rate at 0.5 μM (%)) [%]	inhibition at 2 µM ([1]; 2 μM, read-out: Inhibition Rate at 2 μM (%)) [%]	Degradation of substrate protein Tau (substrate protein remaining %) (Tau)
Nc1ncnc2c1c(-c1ccc(Oc3ccccc3)cc1)nn2C1CCN(CC2CCN(c3cccc4c3C(=O)N(N3CCC(=O)NC3=O)C4=O)CC2)CC1 [GT-05077, 4-(4-((4-(4-amino-3-(4-phenoxyphenyl)-1H-pyrazolo[3,4-d]pyrimidin-1-yl)piperidin-1-yl)methyl)piperidin-1-yl)-2-(2,4-dioxotetrahydropyrimidin-1(2H)-yl)isoindoline-1,3-dione]	A (0%≤substrate protein remaining %≤80%)	–	–	–
Nc1ncnc2c1c(-c1ccc(Oc3ccccc3)cc1)nn2C1CCN(CC2CCN(C3CCN(c4ccc5c(c4)C(=O)N(N4CCC(=O)NC4=O)C5=O)CC3)CC2)CC1 [GT-05096, 5-(4-((4-(4-amino-3-(4-phenoxyphenyl)-1H-pyrazolo[3,4-d]pyrimidin-1-yl)piperidin-1-yl)methyl)-[1,4′-bipiperidin]-1′-yl)-2-(2,4-dioxotetrahydropyrimidin-1(2H)-yl)isoindoline-1,3-dione]	A (0%≤substrate protein remaining %≤80%)	10 to 20	53 to 60	–
O=C1CCN(N2C(=O)c3ccc(N4CCN(CC5CCN(c6ccn7c(n6)nc6ccccc67)CC5)CC4)c(F)c3C2=O)C(=O)N1 [GT-08824, 5-(4-((1-(benzo[4,5]imidazo[1,2-a]pyrimidin-2-yl)piperidin-4-yl)methyl)piperazin-1-yl)-2-(2,4-dioxotetrahydropyrimidin-1(2H)-yl)-4-fluoroisoindoline-1,3-dione]	–	–	–	A (0%≤substrate protein remaining %≤80%)
